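The compound was tested at five concentrations on cells cultured in 96-well plates, with a 48-hour exposure period. GI50 = concentration required for 50% inhibition of growth.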 Calls of active or inactive are those of the source. No stated cut-off is given here; in the data, active = GI50 up to about 1.1 µM and inactive = higher.
Tests used:
Assay in all cases: NCI-60 cell line screen, 48 h
LOX IMVI = tested on: LOX IMVI
RPMI-8226 = tested on: RPMI-8226
MOLT-4 = tested on: MOLT-4
CCRF-CEM = tested on: CCRF-CEM
NCI-H522 = tested on: NCI-H522
SK-MEL-28 = tested on: SK-MEL-28
TK-10 = tested on: TK-10
UACC-62 = tested on: UACC-62
NCI-H460 = tested on: NCI-H460
Malme-3M = tested on: Malme-3M
PC-3 = tested on: PC-3
K562 = tested on: K562
DU-145 = tested on: DU-145
MDA-MB-231 = tested on: MDA-MB-231
CAKI-1 = tested on: CAKI-1
KM12 = tested on: KM12
MDA-N = tested on: MDA-N
SNB-19 = tested on: SNB-19
HCT-116 = tested on: HCT-116

| Compound | GI50 (LOX IMVI) | GI50 (RPMI-8226) | GI50 (MOLT-4) | GI50 (CCRF-CEM) | GI50 (NCI-H522) | GI50 (SK-MEL-28) | GI50 (TK-10) | GI50 (UACC-62) | GI50 (NCI-H460) | GI50 (Malme-3M) | GI50 (PC-3) | GI50 (K562) | GI50 (DU-145) | GI50 (MDA-MB-231) | GI50 (CAKI-1) | GI50 (KM12) | GI50 (MDA-N) | GI50 (SNB-19) | GI50 (HCT-116) |
| --- | --- | --- | --- | --- | --- | --- | --- | --- | --- | --- | --- | --- | --- | --- | --- | --- | --- | --- | --- |
| CN(CCN1CCCC1)C1CCc2cc(Cl)c(Cl)cc2C1 (stereo not given) | 15.1 µM (inactive) | 17.2 µM (inactive) | 24.8 µM (inactive) | 26.4 µM (inactive) | 17.2 µM (inactive) | 18.5 µM (inactive) | 17.1 µM (inactive) | 5.71 µM (inactive) | 16.6 µM (inactive) | 18.9 µM (inactive) | 20 µM (inactive) | 21.8 µM (inactive) | 13.2 µM (inactive) | 17.6 µM (inactive) | 17.3 µM (inactive) | 20.3 µM (inactive) | 9.2 µM (inactive) | 19.7 µM (inactive) | 12.5 µM (inactive) |
| COC(=O)C1=C(OC)C(=P2(c3ccccc3)CC(c3ccccc3)=C2c2ccccc2)C(C(=O)OC)=C1C(=O)OC (stereo not given) | 25.1 µM (inactive) | 9.42 µM (inactive) | 3.17 µM (inactive) | 0.745 µM (active) | 2.65 µM (inactive) | > 68.5 µM (inactive) | > 20.2 µM (inactive) | 61.2 µM (inactive) | 15 µM (inactive) | 29.9 µM (inactive) | 10.8 µM (inactive) | 4.58 µM (inactive) | > 61.2 µM (inactive) | > 72.8 µM (inactive) | 50.4 µM (inactive) | 27.5 µM (inactive) | 38 µM (inactive) | 67.1 µM (inactive) | 22.8 µM (inactive) |
| CCOC(=O)C1(NC(=O)OC(C)(C)C)CCc2[nH]oc(=O)c2C1 (stereo not given) | > 100 µM (inactive) | > 100 µM (inactive) | > 100 µM (inactive) | > 100 µM (inactive) | > 100 µM (inactive) | > 100 µM (inactive) | > 100 µM (inactive) | > 100 µM (inactive) | > 100 µM (inactive) | > 100 µM (inactive) | > 100 µM (inactive) | > 100 µM (inactive) | > 100 µM (inactive) | > 100 µM (inactive) | > 100 µM (inactive) | 9.95 µM (inactive) | > 100 µM (inactive) | > 100 µM (inactive) | > 100 µM (inactive) |
| CC(=O)OC(Cc1cc(C=C(C(F)(F)F)C(F)(F)F)cc(C)n1)(C(F)(F)F)C(F)(F)F | 1.14 µM (inactive) | 0.656 µM (active) | < 0.01 µM (active) | 0.217 µM (active) | 2.01 µM (inactive) | 1.38 µM (inactive) | 2.8 µM (inactive) | 1.68 µM (inactive) | 1.99 µM (inactive) | 2.48 µM (inactive) | 1.77 µM (inactive) | 0.774 µM (active) | 2.48 µM (inactive) | 1.5 µM (inactive) | 1.77 µM (inactive) | 1.55 µM (inactive) | 1.55 µM (inactive) | 1.88 µM (inactive) | 1.1 µM (active) |
| CC(C)C(=O)/C=C/c1ccc(Cl)cc1Cl | 3.55 µM (inactive) | > 100 µM (inactive) | 8.15 µM (inactive) | 5.09 µM (inactive) | 10.8 µM (inactive) | 16.5 µM (inactive) | 14.2 µM (inactive) | 13 µM (inactive) | 11.3 µM (inactive) | 14.8 µM (inactive) | 18.7 µM (inactive) | 5.37 µM (inactive) | 14.2 µM (inactive) | 23.9 µM (inactive) | 12.2 µM (inactive) | 4.06 µM (inactive) | 2.96 µM (inactive) | 15.8 µM (inactive) | 2.65 µM (inactive) |
| Cc1cn([C@H]2C[C@H](O)[C@@H](CO)O2)c(=O)nc1N | > 100 µM (inactive) | > 100 µM (inactive) | > 100 µM (inactive) | > 100 µM (inactive) | > 100 µM (inactive) | > 100 µM (inactive) | > 100 µM (inactive) | > 100 µM (inactive) | > 100 µM (inactive) | > 100 µM (inactive) | > 100 µM (inactive) | > 100 µM (inactive) | > 100 µM (inactive) | > 100 µM (inactive) | > 100 µM (inactive) | > 100 µM (inactive) | > 100 µM (inactive) | > 100 µM (inactive) | > 100 µM (inactive) |
| O=C(NNC(=S)NCc1ccccc1)c1csc(NC(=S)NC2CCCCC2)n1 | 27.4 µM (inactive) | 25.9 µM (inactive) | 30.3 µM (inactive) | 46.2 µM (inactive) | 35.1 µM (inactive) | – | 42.5 µM (inactive) | 40.1 µM (inactive) | – | 38.6 µM (inactive) | 37.3 µM (inactive) | – | 59 µM (inactive) | 44.9 µM (inactive) | 47.3 µM (inactive) | 49.9 µM (inactive) | 28.9 µM (inactive) | 76.6 µM (inactive) | 22.3 µM (inactive) |

— ChEMBL document CHEMBL1201862, “PubChem BioAssay data set” (2004)
